Publication PMC4051630, “A Comparison of Protein Kinases Inhibitor Screening Methods Using Both Enzymatic Activity and Binding Affinity Determination” (PLoS ONE, 2014)

Assays:
Assay in all cases: Differential Scanning Fluorimetry (DSF) Tm shift
Type in all cases: binding
PAK4 Catalytic Domain = target: T1, PAK4 Catalytic Domain (Homo sapiens, UniProt O96013); details: 2 µM protein, 10 µM inhibitor, average of 3 experiments, each in duplicate
T1 construct: For all of them, we expressed and purified the catalytic domain separately; His-tag; made in house; host or cells: Escherichia coli

DMPK Catalytic Domain = target: T2, DMPK Catalytic Domain (Homo sapiens, UniProt Q09013); details: 2 µM protein, 10 µM inhibitor, average of 3 experiments, each in duplicate
T2 construct: For all of them, we expressed and purified the catalytic domain separately; His-tag; made in house; host or cells: Escherichia coli
T2 sequence (Q09013 71-339 limits assumed): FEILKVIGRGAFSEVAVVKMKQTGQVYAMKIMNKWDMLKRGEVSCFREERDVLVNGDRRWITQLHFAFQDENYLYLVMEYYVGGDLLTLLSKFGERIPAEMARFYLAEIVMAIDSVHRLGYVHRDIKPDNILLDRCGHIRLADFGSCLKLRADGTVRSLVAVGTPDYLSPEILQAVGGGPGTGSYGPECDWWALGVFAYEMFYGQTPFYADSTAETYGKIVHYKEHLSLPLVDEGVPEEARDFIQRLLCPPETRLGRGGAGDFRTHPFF

[1] = target: SRC Catalytic Domain+SH2+SH3 (Homo sapiens, UniProt P12931); details: 2 µM protein, 10 µM inhibitor, average of 3 experiments, each in duplicate
STK3 Catalytic Domain = target: T3, STK3 Catalytic Domain (Homo sapiens, UniProt Q13188); details: 2 µM protein, 10 µM inhibitor, average of 3 experiments, each in duplicate
T3 construct: For all of them, we expressed and purified the catalytic domain separately; His-tag; made in house; host or cells: Escherichia coli
T3 sequence (Q13188 27-278 limits assumed): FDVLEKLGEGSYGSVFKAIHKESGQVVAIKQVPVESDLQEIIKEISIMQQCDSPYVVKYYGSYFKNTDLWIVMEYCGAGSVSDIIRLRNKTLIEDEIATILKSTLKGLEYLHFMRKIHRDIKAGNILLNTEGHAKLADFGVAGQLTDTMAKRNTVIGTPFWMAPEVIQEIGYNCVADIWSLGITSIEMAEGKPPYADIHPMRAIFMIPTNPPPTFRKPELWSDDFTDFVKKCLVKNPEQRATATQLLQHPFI

CDK2 + Cyclin E = target: T4, CDK2 + Cyclin E (Homo sapiens, UniProt P24941); details: CDK2 + Cyclin E; 2 µM protein, 10 µM inhibitor; average of 3 experiments, each in duplicate
T4 construct: CDK2 (P24941); 1–299; His-tag; made in house; host or cells: Escherichia coli

CHK2 Catalytic Domain = target: T5, CHK2 Catalytic Domain (Homo sapiens, UniProt O96017); details: 2 µM protein, 10 µM inhibitor, average of 3 experiments, each in duplicate
T5 construct: For all of them, we expressed and purified the catalytic domain separately; His-tag; made in house; host or cells: Escherichia coli

FAK2 Catalytic Domain = target: T6, FAK2 Catalytic Domain (Homo sapiens, UniProt Q14289); details: 2 µM protein, 10 µM inhibitor, average of 3 experiments, each in duplicate
T6 construct: For all of them, we expressed and purified the catalytic domain separately; His-tag; made in house; host or cells: Escherichia coli

FES Catalytic Domain+SH2 = target: T7, FES Catalytic Domain+SH2 (Homo sapiens, UniProt P07332); details: 2 µM protein, 10 µM inhibitor, average of 3 experiments, each in duplicate
T7 construct: for 8, we also made a longer version containing one or more additional domains; His-tag; made in house; host or cells: Escherichia coli

PAK7 Catalytic Domain = target: T8, PAK7 Catalytic Domain (Homo sapiens, UniProt Q9P286); details: 2 µM protein, 10 µM inhibitor, average of 3 experiments, each in duplicate
T8 construct: For all of them, we expressed and purified the catalytic domain separately; His-tag; made in house; host or cells: Escherichia coli

CDK2 + Cyclin A = target: T9, CDK2 + Cyclin A (Homo sapiens, UniProt P24941); details: CDK2 + Cyclin A; 2 µM protein, 10 µM inhibitor; average of 3 experiments, each in duplicate
T9 construct: CDK2 (P24941); 1–299; His-tag; made in house; host or cells: Escherichia coli

[2] = target: T10, PAK4 Catalytic Domain+PBD (Homo sapiens, UniProt O96013); details: 2 µM protein, 10 µM inhibitor, average of 3 experiments, each in duplicate
T10 construct: for 8, we also made a longer version containing one or more additional domains; His-tag; made in house; host or cells: Escherichia coli

FES Catalytic Domain = target: T11, FES Catalytic Domain (Homo sapiens, UniProt P07332); details: 2 µM protein, 10 µM inhibitor, average of 3 experiments, each in duplicate
T11 construct: For all of them, we expressed and purified the catalytic domain separately; His-tag; made in house; host or cells: Escherichia coli

AKT3 Catalytic Domain = target: T12, AKT3 Catalytic Domain (Homo sapiens, UniProt Q9Y243); details: 2 µM protein, 10 µM inhibitor, average of 3 experiments, each in duplicate
T12 construct: AKT3 (Q9Y243); CD; His-tag; made in house; host or cells: Escherichia coli

[3] = target: T13, STK3 Catalytic domain+SARAH (Homo sapiens, UniProt Q13188); details: 2 µM protein, 10 µM inhibitor, average of 3 experiments, each in duplicate
T13 construct: for 8, we also made a longer version containing one or more additional domains; His-tag; made in house; host or cells: Escherichia coli
T13 sequence (Q13188 1-491): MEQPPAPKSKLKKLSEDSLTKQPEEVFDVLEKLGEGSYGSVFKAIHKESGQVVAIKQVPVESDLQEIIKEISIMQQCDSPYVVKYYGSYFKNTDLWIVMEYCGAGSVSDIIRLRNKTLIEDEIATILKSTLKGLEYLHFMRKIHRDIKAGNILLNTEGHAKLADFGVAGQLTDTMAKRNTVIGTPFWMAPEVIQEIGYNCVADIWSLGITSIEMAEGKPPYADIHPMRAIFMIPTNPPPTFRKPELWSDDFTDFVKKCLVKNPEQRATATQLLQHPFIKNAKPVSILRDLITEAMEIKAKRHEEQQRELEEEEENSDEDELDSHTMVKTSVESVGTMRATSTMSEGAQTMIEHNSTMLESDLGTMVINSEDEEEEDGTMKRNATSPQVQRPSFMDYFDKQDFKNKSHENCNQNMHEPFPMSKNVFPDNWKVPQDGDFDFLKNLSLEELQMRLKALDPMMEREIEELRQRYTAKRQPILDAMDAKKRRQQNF

SRC Catalytic Domain = SRC Catalytic Domain (Homo sapiens, UniProt P12931); parameters: For all of them, we expressed and purified the catalytic domain separately; His-tag; made in house; host or cells: Escherichia coli; details: 2 µM protein, 10 µM inhibitor, average of 3 experiments, each in duplicate
Sequence of SRC Catalytic Domain (P12931 270-523 limits assumed): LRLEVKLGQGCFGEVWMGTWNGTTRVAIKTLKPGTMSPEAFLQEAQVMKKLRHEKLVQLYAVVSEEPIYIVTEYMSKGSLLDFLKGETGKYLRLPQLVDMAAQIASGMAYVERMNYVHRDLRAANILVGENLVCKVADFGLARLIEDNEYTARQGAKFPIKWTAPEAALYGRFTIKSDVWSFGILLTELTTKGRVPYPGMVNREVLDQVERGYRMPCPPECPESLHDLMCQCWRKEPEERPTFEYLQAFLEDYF

T12 sequence (Q9Y243 122-479): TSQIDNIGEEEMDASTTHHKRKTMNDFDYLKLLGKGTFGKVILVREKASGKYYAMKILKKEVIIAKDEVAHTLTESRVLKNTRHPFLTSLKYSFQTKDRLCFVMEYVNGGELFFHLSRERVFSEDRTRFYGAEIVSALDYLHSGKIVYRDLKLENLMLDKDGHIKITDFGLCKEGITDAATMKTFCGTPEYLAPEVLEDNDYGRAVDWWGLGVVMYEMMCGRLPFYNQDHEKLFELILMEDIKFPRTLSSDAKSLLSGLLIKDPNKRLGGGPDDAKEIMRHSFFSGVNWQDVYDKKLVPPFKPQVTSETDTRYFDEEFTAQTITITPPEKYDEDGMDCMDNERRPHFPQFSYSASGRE
T8 sequence (Q9P286 449-700 limits assumed): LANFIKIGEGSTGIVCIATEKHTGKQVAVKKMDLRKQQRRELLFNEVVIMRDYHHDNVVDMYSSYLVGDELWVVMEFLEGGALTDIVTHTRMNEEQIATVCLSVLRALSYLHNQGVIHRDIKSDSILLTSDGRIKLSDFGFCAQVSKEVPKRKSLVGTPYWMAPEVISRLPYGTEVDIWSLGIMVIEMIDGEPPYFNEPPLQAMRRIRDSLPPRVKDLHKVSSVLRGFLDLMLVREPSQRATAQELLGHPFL
T10 sequence (O96013 whole entry, the tested form may be a part): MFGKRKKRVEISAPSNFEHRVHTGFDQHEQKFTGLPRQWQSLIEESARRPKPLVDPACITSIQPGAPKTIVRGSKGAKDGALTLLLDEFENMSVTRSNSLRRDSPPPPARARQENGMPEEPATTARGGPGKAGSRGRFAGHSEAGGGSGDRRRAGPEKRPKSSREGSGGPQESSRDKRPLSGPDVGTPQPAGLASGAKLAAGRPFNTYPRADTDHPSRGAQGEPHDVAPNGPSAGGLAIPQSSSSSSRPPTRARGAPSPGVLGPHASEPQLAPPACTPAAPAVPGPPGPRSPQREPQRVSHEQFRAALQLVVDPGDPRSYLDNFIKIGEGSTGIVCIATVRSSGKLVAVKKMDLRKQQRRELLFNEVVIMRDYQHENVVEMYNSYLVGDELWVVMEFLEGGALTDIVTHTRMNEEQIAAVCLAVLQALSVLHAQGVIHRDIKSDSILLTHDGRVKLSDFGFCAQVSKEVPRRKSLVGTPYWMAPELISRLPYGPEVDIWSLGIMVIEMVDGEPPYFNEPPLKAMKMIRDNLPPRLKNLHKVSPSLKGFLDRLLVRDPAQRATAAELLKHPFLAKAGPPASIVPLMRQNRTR
T1 sequence (O96013 321-572 limits assumed): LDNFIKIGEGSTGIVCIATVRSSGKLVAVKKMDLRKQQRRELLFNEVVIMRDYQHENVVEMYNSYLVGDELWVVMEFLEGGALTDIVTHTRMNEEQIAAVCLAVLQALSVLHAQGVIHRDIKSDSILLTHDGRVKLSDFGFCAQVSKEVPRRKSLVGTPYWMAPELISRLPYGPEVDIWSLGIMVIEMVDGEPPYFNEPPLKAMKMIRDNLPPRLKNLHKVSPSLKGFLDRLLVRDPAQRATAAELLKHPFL
T11 sequence (P07332 561-822 limits assumed): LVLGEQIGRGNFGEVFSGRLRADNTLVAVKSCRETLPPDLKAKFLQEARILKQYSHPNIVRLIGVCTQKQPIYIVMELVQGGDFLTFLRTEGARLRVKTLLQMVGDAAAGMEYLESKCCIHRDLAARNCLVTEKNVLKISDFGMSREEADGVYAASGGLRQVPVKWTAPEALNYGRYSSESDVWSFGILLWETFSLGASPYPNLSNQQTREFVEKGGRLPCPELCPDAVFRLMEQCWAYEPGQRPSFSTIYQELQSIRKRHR
Sequence of SRC Catalytic Domain+SH2+SH3 (P12931 84-523 limits assumed): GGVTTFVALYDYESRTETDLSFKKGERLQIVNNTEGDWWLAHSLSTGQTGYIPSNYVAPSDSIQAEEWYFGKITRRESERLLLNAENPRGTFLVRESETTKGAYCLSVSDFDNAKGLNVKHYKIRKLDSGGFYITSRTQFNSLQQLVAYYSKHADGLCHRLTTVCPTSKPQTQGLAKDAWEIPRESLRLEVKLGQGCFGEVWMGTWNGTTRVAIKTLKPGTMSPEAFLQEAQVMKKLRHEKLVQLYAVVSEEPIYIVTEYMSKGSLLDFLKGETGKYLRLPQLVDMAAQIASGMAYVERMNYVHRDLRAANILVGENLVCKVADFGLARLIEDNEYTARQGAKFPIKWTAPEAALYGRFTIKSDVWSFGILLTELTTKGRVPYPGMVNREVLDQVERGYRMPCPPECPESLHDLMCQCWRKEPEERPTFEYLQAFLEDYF
T6 sequence (Q14289 425-683 limits assumed): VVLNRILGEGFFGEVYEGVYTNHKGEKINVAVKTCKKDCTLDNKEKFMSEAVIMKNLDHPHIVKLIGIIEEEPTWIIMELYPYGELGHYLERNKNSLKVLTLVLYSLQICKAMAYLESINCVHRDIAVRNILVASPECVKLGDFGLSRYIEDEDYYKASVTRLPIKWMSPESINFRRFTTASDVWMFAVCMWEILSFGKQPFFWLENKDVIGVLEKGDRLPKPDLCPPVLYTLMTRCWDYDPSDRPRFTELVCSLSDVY
T5 sequence (O96017 220-486 limits assumed): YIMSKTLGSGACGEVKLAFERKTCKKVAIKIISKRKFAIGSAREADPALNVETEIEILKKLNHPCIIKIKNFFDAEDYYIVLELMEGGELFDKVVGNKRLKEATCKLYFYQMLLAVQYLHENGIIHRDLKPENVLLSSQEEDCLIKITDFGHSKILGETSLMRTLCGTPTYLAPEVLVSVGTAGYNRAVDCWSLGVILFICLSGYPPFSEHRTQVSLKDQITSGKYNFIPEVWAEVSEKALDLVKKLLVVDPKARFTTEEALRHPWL
T7 sequence (P07332 448-822 limits assumed): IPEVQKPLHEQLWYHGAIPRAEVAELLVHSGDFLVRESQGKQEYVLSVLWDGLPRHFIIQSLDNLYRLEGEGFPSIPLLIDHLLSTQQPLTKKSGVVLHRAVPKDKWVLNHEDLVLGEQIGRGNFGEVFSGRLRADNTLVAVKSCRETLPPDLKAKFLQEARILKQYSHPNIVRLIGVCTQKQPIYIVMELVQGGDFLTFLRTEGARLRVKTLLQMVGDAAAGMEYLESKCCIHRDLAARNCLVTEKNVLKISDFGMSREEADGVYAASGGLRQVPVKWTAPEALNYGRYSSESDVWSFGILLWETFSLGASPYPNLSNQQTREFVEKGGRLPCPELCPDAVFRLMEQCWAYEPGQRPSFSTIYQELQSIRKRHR

SMILES	Melting temperature (Tm) shift (PAK4 Catalytic Domain) [degrees Celcius]	Melting temperature (Tm) shift (DMPK Catalytic Domain) [degrees Celcius]	Melting temperature (Tm) shift [1] [degrees Celcius]	Melting temperature (Tm) shift (STK3 Catalytic Domain) [degrees Celcius]	Melting temperature (Tm) shift (CDK2 + Cyclin E) [degrees Celcius]	Melting temperature (Tm) shift (CHK2 Catalytic Domain) [degrees Celcius]	Melting temperature (Tm) shift (FAK2 Catalytic Domain) [degrees Celcius]	Melting temperature (Tm) shift (FES Catalytic Domain+SH2) [degrees Celcius]	Melting temperature (Tm) shift (PAK7 Catalytic Domain) [degrees Celcius]	Melting temperature (Tm) shift (CDK2 + Cyclin A) [degrees Celcius]	Melting temperature (Tm) shift [2] [degrees Celcius]	Melting temperature (Tm) shift (FES Catalytic Domain) [degrees Celcius]	Melting temperature (Tm) shift (AKT3 Catalytic Domain) [degrees Celcius]	Melting temperature (Tm) shift [3] [degrees Celcius]	Melting temperature (Tm) shift (SRC Catalytic Domain) [degrees Celcius]
Nc1cccc(-c2cc3c(Oc4cccc(O)c4)ncnc3[nH]2)c1 [GSK3b Inhibitor XII, TWS119]	1.3	1.2	3.1	0.3	0.2	2.1	1.5	2.0	1.1	0.7	1.5	4.1	0.1	0.5	2.6
NC(=O)Nc1sc(-c2ccc(F)cc2)cc1C(N)=O [IKK-2 Inhibitor IV]	1.5	1.8	1.0	2.8	0.4	3.6	1.2	0.5	1.3	0.7	2.4	1.5	0.1	1.6	1.2
O=C1Cc2c([nH]c3ccc(Br)cc23)-c2ccccc2N1 [Kenpaullone]	1.4	1.9	0.2	0.7	0.3	3.4	0.3	0.0	0.7	0.4	3.6	0.4	0.0	1.5	0.4

Other lines, results leading:

Melting temperature (Tm) shift (PAK4 Catalytic Domain) [degrees Celcius]	Melting temperature (Tm) shift (DMPK Catalytic Domain) [degrees Celcius]	Melting temperature (Tm) shift [1] [degrees Celcius]	Melting temperature (Tm) shift (STK3 Catalytic Domain) [degrees Celcius]	Melting temperature (Tm) shift (CDK2 + Cyclin E) [degrees Celcius]	Melting temperature (Tm) shift (CHK2 Catalytic Domain) [degrees Celcius]	Melting temperature (Tm) shift (FAK2 Catalytic Domain) [degrees Celcius]	Melting temperature (Tm) shift (FES Catalytic Domain+SH2) [degrees Celcius]	Melting temperature (Tm) shift (PAK7 Catalytic Domain) [degrees Celcius]	Melting temperature (Tm) shift (CDK2 + Cyclin A) [degrees Celcius]	Melting temperature (Tm) shift [2] [degrees Celcius]	Melting temperature (Tm) shift (FES Catalytic Domain) [degrees Celcius]	Melting temperature (Tm) shift (AKT3 Catalytic Domain) [degrees Celcius]	Melting temperature (Tm) shift [3] [degrees Celcius]	Melting temperature (Tm) shift (SRC Catalytic Domain) [degrees Celcius]	SMILES
2.0	0.0	0.8	1.2	1.7	1.1	0.9	0.6	1.8	2.3	5.0	2.3	0.0	0.7	0.9	CC(C)n1cnc2c(Nc3cccc(Cl)c3)nc(NCCO)nc21 [Compound 52]
1.7	1.2	0.5	0.7	0.5	1.9	1.8	1.4	1.8	0.7	0.5	3.3	0.2	1.2	0.6	O=C(c1ccc(Nc2nccc(-c3cc4ccccc4s3)n2)cc1)N1CCC(N2CCCC2)CC1 [IKK Inhibitor VII]
1.3	1.4	1.1	2.4	0.2	3.6	1.4	0.7	1.3	0.8	2.5	1.8	0.0	2.0	1.3	NC(=O)Nc1sc(-c2ccccc2)cc1C(N)=O [IKK-2 Inhibitor VI]
1.7	1.6	1.0	2.4	0.7	5.8	1.5	1.1	1.3	0.9	2.9	2.1	0.0	1.4	1.5	NC(=O)Nc1cc(-c2ccccc2)sc1C(N)=O [IKK-2 Inhibitor XI]
